Measured values from US4680386A, “6-O-methylerythromycin a derivative” (Taisho Pharmaceutical Co., Ltd., priority 1984, dated 1987).
Converted amounts (≈) assume the structure as drawn. Like-named read-outs stand apart in the source and are kept apart here.

Assays:
[1] = test system: Staphylococcus aureus Smith No. 4; assay: In vivo antibacterial activity, oral treatment of intraperitoneally infected mice; design: species or system ICR mice; settings: one hour after infection, 7-day survival, Litchfield-Wilcoxon, 95% confidence limits given
bacteria = assay: Antibacterial activity (general statement); settings: general statement in words
[2] = test system: Streptococcus faecalis 8043; assay: In vitro antibacterial activity (MIC method specified by the Japan Chemotherapeutic Society); assay type: cell-based
Procedure: (§1) The antibacterial activity of the compound I against various bacteria was measured using sensitive media (produced by Eiken Co.) according to the MIC method specified by the Japan Chemotherapeutic Society. Erythromycin A was used as a control.

[3] = test system: Staphylococcus aureus FDA 209P; assay: as above; assay type: cell-based; settings: FDA209P, read-out: MIC value (minimum inhibitory concentration)
Procedure: as §1

[4] = test system: Streptococcus epidermidis sp-al-l; assay: as above; assay type: cell-based; settings: read-out: MIC value (minimum inhibitory concentration)
Procedure: as §1

[5] = test system: Escherichia coli NIHJ JC-2; assay: as above; assay type: cell-based; settings: NIHJJC2, sensitive media (Eiken), read-out: MIC value (minimum inhibitory concentration)
Procedure: as §1

[6] = test system: Staphylococcus aureus Smith No. 4; assay: as above; assay type: cell-based; settings: read-out: MIC value (minimum inhibitory concentration)
Procedure: as §1

[7] = test system: Baccilus cereus ATCC 9634; assay: as above; assay type: cell-based; settings: sensitive media (Eiken), read-out: MIC value (minimum inhibitory concentration)
Procedure: as §1

[8] = test system: Bacillus subtilis ATCC 6633; assay: as above; assay type: cell-based
Procedure: as §1

[9] = test system: Staphylococcus aureus Smith No. 4; assay: In vivo antibacterial activity, oral treatment of intraperitoneally infected mice; design: species or system ICR mice; settings: for number of mice surviving for 7 days after the infection: one hour after infection, 10 mice per group
Procedure: 10 male ICR mice (Charles River) being of the average body weight 23 g were used for each group. Staphylococcus aureus Smith No. 4 was grown on heart infusion agar medium at 37° C. for 18 hours. The bacteria were suspended in BSG (containing 8.5 g of NaCl, 300 mg of KH2 PO4, 600 mg of Na2 HPO4, 100 mg of gelatin and 1000 ml of water) to show 6×10^7 cfu/ml (containing 5% of mucin). The bacterial suspension (0.5 ml) was injected intraperitoneally to each groups of mice for infection. Erythromycin A and erythromycin A 9-oxime were used as control. An hour after infection, each compound was administered orally to different groups of animals in the specified amounts to study its therapeutic effect.
The therapeutic effect of the drugs was judged by the […] value calculated from the number of mice surviving for 7 days after the infection according to the method of Litchfield-Wilcoxon.

In the case of CC[C@H]1OC(=O)[C@H](C)[C@@H](O[C@H]2C[C@@](C)(OC)[C@@H](O)[C@H](C)O2)[C@H](C)[C@@H](O[C@@H]2O[C@H](C)C[C@H](N(C)C)[C@H]2O)[C@](C)(OC)C[C@@H](C)C(=NO)[C@H](C)[C@@H](O)[C@]1(C)O [Compound I, 6-O-methylerythromycin A 9-oxime], the ED50 [1] is reported as 0.516 mg/mouse, the antibacterial activity (bacteria) is reported as “strong antibacterial activity” and the MIC ([2]; Enterococcus faecalis, Streptococcus faecalis 8043, sensitive media (Eiken), read-out: MIC value (minimum inhibitory concentration)) is reported as no more than 0.05 µg/mL. It also gave an MIC ([3]; Staphylococcus aureus FDA 209P, sensitive media (Eiken)) of 0.1 µg/mL (≈ 0.131 µM), an MIC ([4]; Streptococcus epidermidis sp-al-l, sensitive media (Eiken)) of 0.2 µg/mL (≈ 0.262 µM) and an MIC [5] of 50 µg/mL (≈ 65.5 µM). For the same compound, the MIC ([6]; Staphylococcus aureus Smith No. 4, sensitive media (Eiken)) was 0.1 µg/mL (≈ 0.131 µM), the MIC [7] was 0.1 µg/mL (≈ 0.131 µM) and the MIC ([8]; ATCC6633, Bacillus subtilis ATCC 6633, sensitive media (Eiken), read-out: MIC value (minimum inhibitory concentration)) was 0.1 µg/mL (≈ 0.131 µM). The “number of mice surviving for 7 days after the infection” value (“number of mice surviving for 7 days” below) ([9]; 0.2 mg/mouse) was 1/10, the “number of mice surviving for 7 days” value ([9]; 0.4 mg/mouse) was 4/10 and the “number of mice surviving for 7 days” value ([9]; 0.8 mg/mouse) was 7/10. For the same compound, the “antibacterial activity by oral administration” value ([9]; compared with erythromycin A or erythromycin A 9-oxime) was “far superior to erythromycin A or erythromycin A 9-oxime”.

CC[C@H]1OC(=O)[C@H](C)[C@@H](O[C@H]2C[C@@](C)(OC)[C@@H](O)[C@H](C)O2)[C@H](C)[C@@H](O[C@@H]2O[C@H](C)C[C@H](N(C)C)[C@H]2O)[C@](C)(O)C[C@@H](C)C(=O)[C@H](C)[C@@H](O)[C@]1(C)O [Erythromycin A, erythromycin A] gave an ED50 [1] of 1.517 mg/mouse, an MIC ([2]; Enterococcus faecalis, 8043, read-out: MIC value (minimum inhibitory concentration)) of no more than 0.05 µg/mL and an MIC ([3]; Staphylococcus aureus) of 0.2 µg/mL (≈ 0.273 µM). It also gave an MIC ([4]; Streptococcus) of 0.2 µg/mL (≈ 0.273 µM), an MIC [5] of 50 µg/mL (≈ 68.1 µM) and an MIC ([6]; Staphylococcus aureus) of 0.1 µg/mL (≈ 0.136 µM). The MIC [7] was 0.2 µg/mL (≈ 0.273 µM), the MIC ([8]; Bacillus subtilis, ATCC6633, read-out: MIC value (minimum inhibitory concentration)) was 0.1 µg/mL (≈ 0.136 µM) and the “number of mice surviving for 7 days” value ([9]; 1 mg/mouse) was 1/10. The “number of mice surviving for 7 days” value ([9]; 2 mg/mouse) was 8/10 and the “number of mice surviving for 7 days” value ([9]; 4 mg/mouse) was 10/10.

In the case of CC[C@H]1OC(=O)[C@H](C)[C@@H](O[C@H]2C[C@@](C)(OC)[C@@H](O)[C@H](C)O2)[C@H](C)[C@@H](O[C@@H]2O[C@H](C)C[C@H](N(C)C)[C@H]2O)[C@](C)(O)C[C@@H](C)C(=NO)[C@H](C)[C@@H](O)[C@]1(C)O [Erythromycin A 9-oxime, erythromycin A 9-oxime], the ED50 [1] is reported as 1.418 mg/mouse, the “number of mice surviving for 7 days” value ([9]; 0.5 mg/mouse) is reported as 0/10 and the “number of mice surviving for 7 days” value ([9]; 1 mg/mouse) is reported as 3/10. For the same compound, the “number of mice surviving for 7 days” value ([9]; 2 mg/mouse) was 7/10.
